# Experimental data from article PMC11956012, “Optimization of Cyclophilin B-Targeted Tri-vector Inhibitors for Novel MASH Treatments” (Journal of Medicinal Chemistry, 2025).
# Like-named read-outs stand apart in the source and are kept apart here.
# Tests used:
# [1] = test system: permeabilised human hepatocyte (HepG2) cells; test: Calcium Retention Capacity assay; assay type: cell-based; settings: for EC50: Homo sapiens
# Procedure: Calcium Retention Capacity Assay
# The compounds were prepared as a 10 mM stock solution in 100% DMSO. Subsequent dilutions were made in 100% DMSO and then in assay buffer to 10-fold the final concentration.
# HepG2 cells were permeabilized with 100 µM digitonin for 10 min in ice cold buffer containing 1mM EGTA. Following two wash steps to remove the digitonin, the cells were plated into 96 well black and clear plates at 106 cell per well in a 180 µL assay buffer containing 0.5 µM Calcium Green 5N. Compounds dilution were prepared in DMSO to 1000 fold the final concentration, diluted 1:100 in assay buffer and added to the assay as 20 µL per well. The assay buffer contained 5 mM glutamate and 2.5 mM malate. The cell plate was immediately run on the FLIPR Tetratm which added 5 µL of 200 µM (5 µM) calcium chloride every 5 minutes whilst reading the plate every 3 seconds. The area under the curve (AUC) of the raw trace was calculated at each concentration. AUC values were plotted against concentration and EC50 values calculated. Experiments were repeated three times and the EC50 value was determined from a curve fitted to the averaged replicates.
# [2] = target: T1, Cyp A (Homo sapiens, UniProt P62937)
# Procedure: (§1) The cyclophilin binding properties of the compounds were assessed by Surface Plasmon Resonance (SPR) against Cyp A, B and D isoforms (Table 1, representative sensorgrams are shown in Figure 3A).[35]
# Surface Plasmon Resonance (SPR)
# (§2) SPR measurements were performed on a Biacore T200 instrument (Cytiva). Ni2+ -
# (§3) nitrilotriacetic acid (NTA) sensor chips, 1-ethyl-3-(3-diaminopropyl) carbodiimide
# (§4) hydrochloride (EDC) and N hydroxy succinimide (NHS) were purchased from Cytiva.
# (§5) Immobilization and covalent stabilization of His-Cyps Pure His-cyclophilins on the NTA
# (§6) sensor chip was performed essentially as described. [Wear et al., 2017, FEBS OpenBio], using
# (§7) 200 nM concentrations of each protein, in Running Buffer (PBS, pH7.4; 0.05 % surfactant P20,
# (§8) 2% v/v ethanol; 50 µM EDTA), at 30 µl min-1 with 60 second contact times on the activated
# (§9) NTA surfaces. This gave signals of 1,921 RU for His-CypA, 1932 RU for His-CypB and 1,397
# (§10) RU for His-CypD. Specific surface protein activity was assayed by passing saturating amounts
# (§11) activity were obtained for His-CypA, -B and –D, respectively.
# Kinetic titration experiments
# (§12) Single cycle kinetic titration binding experiments were performed in triplicate at 25 °C. 3-fold
# (§13) injected over the sensor surface, at 100 µl min-1 with a 90 s contact time and a 90 s dissociation
# (§14) time. The sensor surface was regenerated between experiments by dissociating any formed
# (§15) complex in running buffer for at least 1,200 seconds. The apparent on-rate (k+) and off-rate (k-
# (§16) ) constants and the equilibrium dissociation constant (Kd) were calculated from reference
# [3] = target: T2, Cyp D (Homo sapiens, UniProt P30405)
# Procedure: as §1
# Surface Plasmon Resonance (SPR)
# as §2, §3, §4, §5, §6, §7, §8, §9, §10, §11
# Kinetic titration experiments
# as §12, §13, §14, §15, §16
# [4] = target: T3, Cyp B (Homo sapiens, UniProt P23284); test: biochemical
# Procedure: as §1
# Surface Plasmon Resonance (SPR)
# as §2, §3, §4, §5, §6, §7, §8, §9, §10, §11
# Kinetic titration experiments
# as §12, §13, §14, §15, §16
# [5] = Intrinsic clearance, rat liver microsomes; assay type: in vitro ADME; settings: for microsomal CLint: Table 3, read-out: Rat Liver microsomes CL
# [6] = Intrinsic clearance, human liver microsomes; assay type: in vitro ADME; settings: for microsomal CLint: Table 3, read-out: Human Liver microsomes CL
# [7] = Intrinsic clearance, rat hepatocytes; assay type: in vitro ADME; settings: for hepatocyte CLint: Table 3, read-out: Rat Hepatocytes CL
# [8] = Intrinsic clearance, human hepatocytes; assay type: in vitro ADME; settings: for hepatocyte CLint: Table 3, read-out: Human Hepatocytes CL
# [9] = target: T3, Cyp B; settings: from SPR Kd
# Procedure: as §1
# Surface Plasmon Resonance (SPR)
# as §2, §3, §4, §5, §6, §7, §8, §9, §10, §11
# Kinetic titration experiments
# as §12, §13, §14, §15, §16
# [10] = physchem
# Procedure: (§17) These experiments were subcontracted to Eurofins.
# (§18) Kinetic solubility measurements were carried out using a shake-flask technique. Compounds
# (§19) were incubated for 24 hours at room temperature. Aqueous solubility (μM) was determined by
# (§20) comparing the peak area of the principal peak in a calibration standard (200 μM) containing
# (§21) organic solvent (methanol/water, 60/40, v/v) with the peak area of the corresponding peak in a
# (§22) buffer sample. In addition, chromatographic purity (%) was defined as the peak area of the
# (§23) principal peak relative to the total integrated peak area in the HPLC chromatogram of the
# (§24) calibration standard. A chromatogram of the calibration standard of each test compound, along
# (§25) with a UV/VIS spectrum with labeled absorbance maxima, was generated.
# (§26) These were measured using a shake-flask technique. Compounds were incubated for 60 min at
# (§27) room temperature. The total amount of compound was determined as the peak area of the
# (§28) principal peak in a calibration standard (100 μM) containing organic solvent (methanol/water,
# (§29) 60/40, v/v). The amount of compound in buffer was determined as the combined, volume
# (§30) corrected, and weighted areas of the corresponding peaks in the aqueous phases of three
# (§31) organic-aqueous samples of different composition. An automated weighting system was used
# (§32) to ensure the preferred use of raw data from those samples with well quantifiable peak signals.
# (§33) The amount of compound in organic was calculated by subtraction. Subsequently, Log D was
# (§34) calculated as the Log10 of the amount of compound in the organic phase divided by the amount
# of compound in the aqueous phase.
# [11] = physchem; remark: listed apart in the source
# Procedure: as §17, §18, §19, §20, §21, §22, §23, §24, §25, §26, §27, §28, §29, §30, §31, §32, §33, §34
# of compound in the aqueous phase.
# [12] = in vitro; settings: human, Caco-2
# [13] = target: T1, Cyp A; test: SPR kinetic titration, Cyp A
# Procedure: as §1
# Surface Plasmon Resonance (SPR)
# as §2, §3, §4, §5, §6, §7, §8, §9, §10, §11
# Kinetic titration experiments
# as §12, §13, §14, §15, §16
# [14] = target: T2, Cyp D; test: SPR kinetic titration, Cyp D
# Procedure: as §1
# Surface Plasmon Resonance (SPR)
# as §2, §3, §4, §5, §6, §7, §8, §9, §10, §11
# Kinetic titration experiments
# as §12, §13, §14, §15, §16
# [15] = Caco-2 permeability; settings: human, Caco-2
# [16] = test system: Caco-2; test: Caco-2 permeability; settings: apparent permeability A-B
# [17] = test system: Salmonella typhimurium TA98; test: Ames fluctuation test TA98; settings: for Ames fluctuation test TA98 +S9: with rat liver S9; for Ames fluctuation test TA98 –S9: without S9
# Procedure: (§35) Bacterial cytotoxicity tests were carried out using Reverted Salmonella typhimurium strains
# (§36) (TA98, TA100, TA1535, TA1537) that were incubated 96 hours at 37 Celsius. The results for
# (§37) cytotoxicity are expressed as percent of control growth (OD650). Compounds with growth of
# (§38) less than 60 % of control are flagged and considered cytotoxic.
# (§39) Compounds were incubated for 96 hours at 37°C at 4 different concentrations (5 mM, 10 mM,
# (§40) the absence and presence of rat liver S9 microsomes.
# (§41) to the reversion of the histidine mutation (as judged by the ratio of OD430/OD570 being greater
# (§42) than 1.0) are counted and recorded as positive counts. The significance of the positive counts
# (§43) between the treatment (in the presence of test compound) and the control (in the absence of test
# (§44) compound) are calculated using the one-tailed Fisher's exact test. Three significance levels are
# (§45) Very strong positive, if p < 0.001, denoted as "+++"
# (§46) Control experiments were carried out with 2-aminoanthracene (10 mM), 9-aminoacridine (10
# (§47) mM), quercetin (30 mM) and streptozocitin (2.5 mM).
# [18] = test system: Salmonella typhimurium TA100; test: Ames fluctuation test TA100; settings: for Ames fluctuation test TA100 +S9: with rat liver S9; for Ames fluctuation test TA100 –S9: without S9
# Procedure: as §35, §36, §37, §38, §39, §40, §41, §42, §43, §44, §45, §46, §47
# [19] = test system: Salmonella typhimurium TA1535; test: Ames fluctuation test TA1535; settings: for Ames fluctuation test TA1535 +S9: with rat liver S9; for Ames fluctuation test TA1535 –S9: without S9
# Procedure: as §35, §36, §37, §38, §39, §40, §41, §42, §43, §44, §45, §46, §47
# [20] = test system: Salmonella typhimurium TA1537; test: Ames fluctuation test TA1537; settings: for Ames fluctuation test TA1537 +S9: with rat liver S9; for Ames fluctuation test TA1537 –S9: without S9
# Procedure: as §35, §36, §37, §38, §39, §40, §41, §42, §43, §44, §45, §46, §47
# [21] = Aqueous kinetic solubility, shake-flask
# Procedure: as §17, §18, §19, §20, §21, §22, §23, §24, §25, §26, §27, §28, §29, §30, §31, §32, §33, §34
# of compound in the aqueous phase.
# [22] = Partition coefficient (Log D), shake-flask; settings: octanol/water
# Procedure: as §17, §18, §19, §20, §21, §22, §23, §24, §25, §26, §27, §28, §29, §30, §31, §32, §33, §34
# of compound in the aqueous phase.
# [23] = test system: Salmonella typhimurium strains (TA98, TA100, TA1535, TA1537); test: Ames tests, all strains (summary in words); settings: in absence and presence of liver S9 fractions
# Procedure: as §35, §36, §37, §38, §39, §40, §41, §42, §43, §44, §45, §46, §47
# [24] = test system: iPSC-derived hepatocytes; test: In vitro hepatic steatosis (MASH) assay; assay type: cell-based; settings: 48 h treatment
# [25] = set-up: method as in PMID 38324483; settings: phase III trial; cited from earlier work
# [26] = digitonin-permeabilised HepG2 cells, read-out: EC50 CRC assay
# [27] = Kd Cyp B, SPR-derived dissociation constant, 25 °C
# [28] = read-out: Rat Liver microsomes t1/2
# [29] = read-out: Human Liver microsomes t1/2
# [30] = hepatocytes, read-out: Rat Hepatocytes t1/2
# [31] = hepatocytes, read-out: Human Hepatocytes t1/2
# T1 sequence (P62937 whole entry): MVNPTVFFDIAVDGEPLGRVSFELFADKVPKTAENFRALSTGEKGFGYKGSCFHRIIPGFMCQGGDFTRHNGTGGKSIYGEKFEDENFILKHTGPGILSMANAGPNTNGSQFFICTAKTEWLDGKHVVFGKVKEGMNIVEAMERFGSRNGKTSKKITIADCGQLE
# T2 sequence (P30405 42-207): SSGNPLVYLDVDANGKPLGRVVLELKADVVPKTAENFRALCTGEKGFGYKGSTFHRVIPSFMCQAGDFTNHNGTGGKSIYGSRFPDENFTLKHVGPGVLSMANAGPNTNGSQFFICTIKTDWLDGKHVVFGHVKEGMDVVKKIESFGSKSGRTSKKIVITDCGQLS
# T3 sequence (P23284 32-216 limits assumed): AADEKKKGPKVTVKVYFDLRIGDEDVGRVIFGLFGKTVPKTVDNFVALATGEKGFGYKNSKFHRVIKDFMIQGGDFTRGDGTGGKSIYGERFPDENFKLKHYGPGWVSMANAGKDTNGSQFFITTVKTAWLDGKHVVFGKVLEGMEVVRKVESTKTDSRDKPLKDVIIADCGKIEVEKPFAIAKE
smiles,measurement,setting,value
"CSc1ccccc1[C@H]1CCCN1C(=O)CNC(=O)N(Cc1ccc(N)cc1)Cc1nnn(C)n1 [Compound 2, 1-[(4-Aminophenyl)methyl]-1-[(2-methyltetrazol-5-yl)methyl]-3-[2-oxo-2-[(2R)-2-(2-methylsulfanylphenyl)pyrrolidin-1-yl]ethyl]urea]",EC50,[1]; [26],1.39 µM
same,Kd,[2],0.09 ± 0.01 µM
same,Kd,[3],0.08 ± 0.01 µM
same,Kd,[4],0.012 ± 0.004 µM
"CSc1ccccc1[C@H]1CCCN1C(=O)CNC(=O)N(Cc1ccc2c(c1)[C@H]1C[C@@H](N2)[C@H](O)CO1)Cc1nnn(C)n1 [Compound 3, 1-[[(1S,9R,10S)-10-Hydroxy-12-oxa-8-azatricyclo[7.3.1.0,^27]trideca-2,4,6-trien-4-yl]methyl]-3-[2-[(2R)-2-(2-methylsulfanylphenyl)pyrrolidin-1-yl]-2-oxo-ethyl]-1-[(2-methyltetrazol-5-yl)methyl]urea]",EC50,"[1]; HepG2, read-out: EC50 CRC assay",0.244 µM
same,greater efficacy over CsA in the calcium retention assay,[1]; from EC50 values,2 fold
same,half-life,[5],51 min
same,microsomal CLint,[5],137 µL/min/mg
same,half-life,[6],41 min
same,microsomal CLint,[6],169 µL/min/mg
same,half-life,[7]; cryopreserved hepatocytes,> 120 min
same,hepatocyte CLint,[7]; cryopreserved hepatocytes,< 8 µL/min/1e6 cells
same,half-life,[8]; cryopreserved hepatocytes,> 120 min
same,hepatocyte CLint,[8]; cryopreserved hepatocytes,< 8 µL/min/1e6 cells
same,selectivity for Cyp B over Cyp A,[9],3 fold
same,logD,[10],0.66
same,solubility,[11],54 µM
same,solubility,[11]; pH 7.4,> 200 µM
same,Papp A→B,[12],0.03 ×10⁻⁶ cm/s
same,efflux ratio,[12],37
same,Kd,[4]; [27],0.002 ± 0.001 µM
same,Kd,[13],0.006 ± 0.002 µM
same,Kd,[14],0.008 ± 0.003 µM
"CSc1ccccc1[C@@H]1CCCN1C(=O)CNC(=O)N(Cc1ccc2c(c1)[C@@H]1C[C@@H](N2)[C@H](O)CO1)Cc1nnn(C)n1 [Compound 4, 1-[[(1S,9R,10S)-10-Hydroxy-12-oxa-8-azatricyclo[7.3.1.0,^27]trideca-2,4,6-trien-4-yl]methyl]-3-[2-[(2S)-2-(2-methylsulfanylphenyl)pyrrolidin-1-yl]-2-oxo-ethyl]-1-[(2-methyltetrazol-5-yl)methyl]urea]",EC50,[1]; [26],4.12 µM
same,Kd,[2],0.31 ± 0.04 µM
same,Kd,[3],0.4 ± 0.03 µM
same,Kd,[4]; [27],0.42 ± 0.08 µM
"Cn1nnc(CN(Cc2ccc(N)c(Cl)c2)C(=O)NCC(=O)N2CCC[C@@H]2c2ccccc2Br)n1 [Compound 10, 1-[(4-Amino-3-chloro-phenyl)methyl]-1-[(2-methyltetrazol-5-yl)methyl]-3-[2-oxo-2-[(2R)-2-(2-bromophenyl)pyrrolidin-1-yl]ethyl]urea]",microsomal CLint,[5],238 µL/min/mg
same,half-life,[5]; [28],29 min
same,microsomal CLint,[6],344 µL/min/mg
same,half-life,[6]; [29],20 min
same,hepatocyte CLint,[7]; hepatocytes,< 8 µL/min/1e6 cells
same,half-life,[7]; [30],> 120 min
same,hepatocyte CLint,[8]; hepatocytes,12 µL/min/1e6 cells
same,half-life,[8]; [31],85 min
same,Kd,[2],0.2 ± 0.04 µM
same,Kd,[3],0.58 ± 0.1 µM
same,Kd,[4],0.035 ± 0.006 µM
same,efflux ratio,[15],1.9
same,Caco-2 A-B,[16],6.6 10^–6 cm/s
same,Ames fluctuation test TA98 +S9,[17],neg/neg
same,Ames fluctuation test TA98 –S9,[17],neg/neg
same,Ames fluctuation test TA100 +S9,[18],neg/neg
same,Ames fluctuation test TA100 –S9,[18],neg/neg
same,Ames fluctuation test TA1535 +S9,[19],neg/neg
same,Ames fluctuation test TA1535 –S9,[19],neg/neg
same,Ames fluctuation test TA1537 +S9,[20],neg/neg
same,Ames fluctuation test TA1537 –S9,[20],neg/neg
same,solubility at 24 h,"[21]; PBS, pH 7.4",> 200 µM
same,solubility at 24 h,[21]; simulated gastric fluid,> 200 µM
same,solubility at 24 h,[21]; simulated intestinal fluid,> 200 µM
same,"logD at 1 h, 100 µM",[22],1.74
same,Ames result in all strains tested,[23],negative
"CSc1ccccc1[C@H]1CCCN1C(=O)CNC(=O)N(Cc1cnc(N)nc1)Cc1ncc(C)s1 [Compound 12, 1-[(2-Aminopyrimidin-5-yl)methyl]-1-[(5-methylthiazol-2-yl)methyl]-3-[2-oxo-2-[(2R)-2-(2-methylsulfanylphenyl)pyrrolidin-1-yl]ethyl]urea]",effect on hepatocyte overall lipid levels and lipid droplet size (in words),[24],lack of potency
same,EC50,"[24]; Hepatocyte, 48 h, read-out: EC50 MASH assay",> 10 µM
same,microsomal CLint,[5],449 µL/min/mg
same,half-life,[5]; [28],15 min
same,microsomal CLint,[6],604 µL/min/mg
same,half-life,[6]; [29],11 min
same,hepatocyte CLint,[7]; hepatocytes,12 µL/min/1e6 cells
same,half-life,[7]; [30],84 min
same,hepatocyte CLint,[8]; hepatocytes,11 µL/min/1e6 cells
same,half-life,[8]; [31],94 min
same,Kd,[2],7.3 ± 1 µM
same,selectivity for Cyp B over Cyp A,[9],80 fold
same,Kd,[3],1.5 ± 0.5 µM
same,Kd,[4]; [27],0.088 ± 0.02 µM
same,efflux ratio,[15],16
same,Caco-2 A-B,[16],0.8 10^–6 cm/s
same,Ames fluctuation test TA98 +S9,[17],neg/neg
same,Ames fluctuation test TA98 –S9,[17],neg/neg
same,Ames fluctuation test TA100 +S9,[18],neg/neg
same,Ames fluctuation test TA100 –S9,[18],neg/neg
same,Ames fluctuation test TA1535 +S9,[19],neg/neg
same,Ames fluctuation test TA1535 –S9,[19],neg/neg
same,Ames fluctuation test TA1537 +S9,[20],neg/neg
same,Ames fluctuation test TA1537 –S9,[20],neg/neg
same,solubility at 24 h,"[21]; PBS, pH 7.4",> 200 µM
same,solubility at 24 h,[21]; simulated gastric fluid,> 200 µM
same,solubility at 24 h,[21]; simulated intestinal fluid,> 200 µM
same,"logD at 1 h, 100 µM",[22],1.27
same,Ames result in all strains tested,[23],negative
"CSc1ccccc1[C@H]1CCCN1C(=O)CN1C(=O)CN(Cc2cc(F)c(N)c(F)c2)C1=O [Compound 15, 1-[(4-Amino-3,5-difluoro-phenyl)methyl]-3-[2-oxo-2-[(2R)-2-(2-methylsulfanylphenyl)pyrrolidine-1-yl]ethyl]imidazolidine-2,4-dione]",Kd,[3],6.3 ± 1.6 µM
same,Kd,[4],3.8 ± 1.3 µM
same,Kd,[13],6.7 ± 2.6 µM
"CC(C)c1cc(Oc2c(Cl)cc(-n3nc(C#N)c(=O)[nH]c3=O)cc2Cl)n[nH]c1=O [Resmetirom, reference compound]",EC50,"[24]; 95% CI [lower limit, upper limit], listed as Res, read-out: EC50 steatosis",0.261 µM
same,EC50,"[24]; Hepatocyte, 48 h, 95% CI [lower limit, upper limit], read-out: EC50 steatosis",~0.3 µM
same,patients with improved liver pathology,[25],25–30%
